One data set has as its target T1, Human PI3Kδ (p110δ/p85α) (Homo sapiens, UniProt O00329).
T1 construct: N-terminal GST tagged recombinant full-length human p110δ; GST (N); host or cells: Baculovirus infected Sf9 cells
Description: PI3K isoform HTRF enzyme assay, PI3Kδ. The format is biochemical. The following applies: for IC50: 10 μM PIP2, 10 μM ATP, HTRF, read-out: IC50 against PI3Kδ. As for the experimental part: (§1) The compound of Example 18, methyl 3-(4-fluorobenzamido)-7,8-dimethoxythieno[3,2-c]quinoline-2-carboxylate, was tested for ability to inhibit the four PI3K isoforms PI3Kα, PI3Kβ, PI3Kδ and PI3Kγ in a homogeneous time-resolved fluorescence (HTRF) enzyme assay.
(§2) The assay relies on the action of the aforesaid kinases on the substrate phosphatidylinositol (4,5)-bisphosphate (PIP2), providing the product phosphatidylinositol (3,4,5)-trisphosphate (PIP3). The PIP3 product is detected by displacement of biotin-PIP3 from an energy transfer complex consisting of Europium labeled anti-GST monoclonal antibody, a GST-tagged pleckstrin homology (PH) domain, biotinylated PIP3 and Streptavidin-Allophycocyanin (APC). Excitation of Europium in the complex results in an energy transfer to the APC and a fluorescent emission at 665 nm. The PIP3 product formed by PI 3-kinase(h) activity displaces biotin-PIP3 from the complex resulting in a loss of energy transfer and thus a decrease in signal. […]
(§3) The enzymes (PI3Kα, PI3Kβ, PI3Kδ or PI3Kγ) were delivered into the following kinase reaction buffer containing 10 μM PIP2 substrate: HEPES 50 mM (pH7.0), NaN3 0.02%, BSA 0.01%, Orthovanadate 0.1 mM, 1% DMSO. […] Homogeneous time-resolved fluorescence (HTRF) was measured (Ex=320 nm, ratio of Em=615 nm and Em=665 nm). […]
In general terms: TR-FRET usually uses a lanthanide donor and a delayed reading to cut background.

Data set [1] has as its system K562 (chronic myelogenous leukemia; leukemia cell line +ve for Bcr-Abl). The data set is described as follows: Cancer cell assay, K562 tumor cells, viable cells after 96 hours. The format is cell-based. The following applies: Homo sapiens, 96 hours after treatment, called IC50. Here is the method:
(§4) The effect of the compounds of the invention on tumor cells was determined by the assay described by Latham et al., Oncogene 12:827-837 (1996). Tumor cells K562 (chronic myelogenous leukemia; leukemia cell line +ve for Bcr-Abl) or DU145 (prostate cancer) were plated in 12-well dishes at a cell density of 2.5×10^4 cells well. The plated cells were treated 24 hours later with a compound of the invention dissolved in DMSO at multiple concentrations ranging from 0.01 μM to 100 μM. The plates were examined 96 hours later under an inverted microscope, Olympus CK-2 using a 10× objective, and compound activity was noted by physical observation. When necessary, the total number of viable cells was determined by trypsinizing the wells and counting the number of viable cells, as determined by trypan blue exclusion, using a hemacytometer.

A further data set concerns DU145 (prostate cancer). The data set is described as follows: Cancer cell assay, DU145 tumor cells, viable cells after 96 hours. The format is cell-based. The following applies: Homo sapiens, DU-145, 96 hours after treatment, called IC50. Here is the method: as §4
In the next data set the target is T2, Human PI3Kα (p110α/p85α) (Homo sapiens, UniProt P42336).
T2 construct: N-terminal GST-tagged recombinant full-length human p110α; GST (N); host or cells: Baculovirus infected Sf9 cells
T2 sequence (P42336 whole entry): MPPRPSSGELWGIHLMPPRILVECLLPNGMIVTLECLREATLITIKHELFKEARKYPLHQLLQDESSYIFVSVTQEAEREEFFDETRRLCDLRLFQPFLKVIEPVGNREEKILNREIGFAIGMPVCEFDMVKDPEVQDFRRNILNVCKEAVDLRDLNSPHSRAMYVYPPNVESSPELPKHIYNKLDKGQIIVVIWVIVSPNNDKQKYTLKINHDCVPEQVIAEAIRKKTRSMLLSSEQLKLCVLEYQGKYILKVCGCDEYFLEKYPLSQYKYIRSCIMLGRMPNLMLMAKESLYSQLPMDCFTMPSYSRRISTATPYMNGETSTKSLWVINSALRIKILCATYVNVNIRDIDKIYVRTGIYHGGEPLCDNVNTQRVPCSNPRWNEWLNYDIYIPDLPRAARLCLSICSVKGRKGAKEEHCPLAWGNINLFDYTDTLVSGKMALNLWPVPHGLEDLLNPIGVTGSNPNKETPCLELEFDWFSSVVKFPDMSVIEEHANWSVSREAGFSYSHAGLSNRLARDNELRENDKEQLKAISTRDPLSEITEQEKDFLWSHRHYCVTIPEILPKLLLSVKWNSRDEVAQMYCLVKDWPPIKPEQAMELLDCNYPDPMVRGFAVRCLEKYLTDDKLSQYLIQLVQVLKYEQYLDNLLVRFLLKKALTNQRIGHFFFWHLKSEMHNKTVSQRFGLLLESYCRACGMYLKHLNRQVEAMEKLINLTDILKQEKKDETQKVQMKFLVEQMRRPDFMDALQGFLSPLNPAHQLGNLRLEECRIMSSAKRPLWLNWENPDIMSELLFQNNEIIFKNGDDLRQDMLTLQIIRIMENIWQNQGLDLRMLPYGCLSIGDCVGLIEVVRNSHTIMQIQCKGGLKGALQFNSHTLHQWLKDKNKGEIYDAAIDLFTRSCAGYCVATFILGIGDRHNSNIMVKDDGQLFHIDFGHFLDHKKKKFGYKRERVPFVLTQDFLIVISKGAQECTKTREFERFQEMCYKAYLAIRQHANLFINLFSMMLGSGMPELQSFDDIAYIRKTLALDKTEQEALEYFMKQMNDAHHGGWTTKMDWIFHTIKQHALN
T2 sequence (P27986 whole entry partner): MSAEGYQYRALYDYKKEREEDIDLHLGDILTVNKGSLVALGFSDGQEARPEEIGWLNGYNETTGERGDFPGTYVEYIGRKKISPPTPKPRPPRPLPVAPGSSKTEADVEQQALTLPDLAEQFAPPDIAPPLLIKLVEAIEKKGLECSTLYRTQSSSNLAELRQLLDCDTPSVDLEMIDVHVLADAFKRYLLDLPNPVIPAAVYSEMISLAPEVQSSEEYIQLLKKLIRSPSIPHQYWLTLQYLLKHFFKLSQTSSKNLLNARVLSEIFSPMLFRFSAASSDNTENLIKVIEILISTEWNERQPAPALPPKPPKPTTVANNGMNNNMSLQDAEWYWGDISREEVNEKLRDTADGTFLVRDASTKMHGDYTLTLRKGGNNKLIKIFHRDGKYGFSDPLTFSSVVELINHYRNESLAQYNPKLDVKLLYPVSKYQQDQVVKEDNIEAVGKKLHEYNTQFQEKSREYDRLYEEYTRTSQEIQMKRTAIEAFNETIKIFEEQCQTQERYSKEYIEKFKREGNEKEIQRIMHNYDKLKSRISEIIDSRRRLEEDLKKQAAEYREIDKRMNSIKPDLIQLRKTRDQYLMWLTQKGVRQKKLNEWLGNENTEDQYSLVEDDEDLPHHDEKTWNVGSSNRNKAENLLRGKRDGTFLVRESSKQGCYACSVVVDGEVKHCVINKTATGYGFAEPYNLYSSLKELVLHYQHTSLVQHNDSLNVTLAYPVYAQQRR
The data set is described as follows: PI3K isoform HTRF enzyme assay, PI3Kα. The format is biochemical. Here is the method: as §1, §2, §3

In another data set the target is T3, Human PI3Kβ (p110β/p85α) (Homo sapiens, UniProt P42338).
T3 construct: N-terminal 6His-tagged recombinant full-length human p110β; 6His (N); host or cells: Baculovirus infected Sf21 cells
T3 sequence (P42338 whole entry): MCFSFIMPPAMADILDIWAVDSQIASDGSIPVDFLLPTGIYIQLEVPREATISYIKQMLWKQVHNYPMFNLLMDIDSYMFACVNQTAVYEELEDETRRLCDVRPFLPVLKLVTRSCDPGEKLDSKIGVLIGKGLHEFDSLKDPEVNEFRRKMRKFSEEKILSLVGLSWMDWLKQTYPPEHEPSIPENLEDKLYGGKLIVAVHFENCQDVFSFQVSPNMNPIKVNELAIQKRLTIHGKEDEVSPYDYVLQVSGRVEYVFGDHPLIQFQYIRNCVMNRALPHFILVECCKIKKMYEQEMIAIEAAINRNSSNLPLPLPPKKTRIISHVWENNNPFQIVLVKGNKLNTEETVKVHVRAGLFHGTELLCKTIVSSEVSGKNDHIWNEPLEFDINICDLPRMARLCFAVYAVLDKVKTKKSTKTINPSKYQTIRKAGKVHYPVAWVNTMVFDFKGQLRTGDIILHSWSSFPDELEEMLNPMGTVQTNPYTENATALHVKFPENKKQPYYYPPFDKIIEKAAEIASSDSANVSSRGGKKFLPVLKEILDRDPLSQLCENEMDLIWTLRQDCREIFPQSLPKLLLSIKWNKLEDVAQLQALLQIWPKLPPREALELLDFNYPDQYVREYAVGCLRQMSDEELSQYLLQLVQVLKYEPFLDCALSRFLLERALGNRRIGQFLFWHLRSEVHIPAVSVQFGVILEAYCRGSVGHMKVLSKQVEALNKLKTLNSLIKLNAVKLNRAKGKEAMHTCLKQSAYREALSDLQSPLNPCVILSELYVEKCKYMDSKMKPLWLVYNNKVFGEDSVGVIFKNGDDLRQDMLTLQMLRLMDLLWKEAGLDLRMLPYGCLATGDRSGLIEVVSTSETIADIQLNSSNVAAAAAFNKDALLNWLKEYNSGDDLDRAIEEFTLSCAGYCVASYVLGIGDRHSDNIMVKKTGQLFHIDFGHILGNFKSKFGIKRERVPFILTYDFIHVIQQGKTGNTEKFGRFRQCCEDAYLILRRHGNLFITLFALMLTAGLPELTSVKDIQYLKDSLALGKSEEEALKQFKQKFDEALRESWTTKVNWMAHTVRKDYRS
T3 sequence (P27986 whole entry partner): as the sequence (P27986 whole entry partner) above
Description: PI3K isoform HTRF enzyme assay, PI3Kβ. The format is biochemical. Here is the method:
as §1, §2, §3

Another data set deals with T4, Human PI3Kγ (p120γ) (Homo sapiens, UniProt P48736).
T4 construct: His (N); host or cells: Baculovirus infected insect cells (printed 'SP)', probably a misprint of Sf9)
T4 sequence (P48736 whole entry): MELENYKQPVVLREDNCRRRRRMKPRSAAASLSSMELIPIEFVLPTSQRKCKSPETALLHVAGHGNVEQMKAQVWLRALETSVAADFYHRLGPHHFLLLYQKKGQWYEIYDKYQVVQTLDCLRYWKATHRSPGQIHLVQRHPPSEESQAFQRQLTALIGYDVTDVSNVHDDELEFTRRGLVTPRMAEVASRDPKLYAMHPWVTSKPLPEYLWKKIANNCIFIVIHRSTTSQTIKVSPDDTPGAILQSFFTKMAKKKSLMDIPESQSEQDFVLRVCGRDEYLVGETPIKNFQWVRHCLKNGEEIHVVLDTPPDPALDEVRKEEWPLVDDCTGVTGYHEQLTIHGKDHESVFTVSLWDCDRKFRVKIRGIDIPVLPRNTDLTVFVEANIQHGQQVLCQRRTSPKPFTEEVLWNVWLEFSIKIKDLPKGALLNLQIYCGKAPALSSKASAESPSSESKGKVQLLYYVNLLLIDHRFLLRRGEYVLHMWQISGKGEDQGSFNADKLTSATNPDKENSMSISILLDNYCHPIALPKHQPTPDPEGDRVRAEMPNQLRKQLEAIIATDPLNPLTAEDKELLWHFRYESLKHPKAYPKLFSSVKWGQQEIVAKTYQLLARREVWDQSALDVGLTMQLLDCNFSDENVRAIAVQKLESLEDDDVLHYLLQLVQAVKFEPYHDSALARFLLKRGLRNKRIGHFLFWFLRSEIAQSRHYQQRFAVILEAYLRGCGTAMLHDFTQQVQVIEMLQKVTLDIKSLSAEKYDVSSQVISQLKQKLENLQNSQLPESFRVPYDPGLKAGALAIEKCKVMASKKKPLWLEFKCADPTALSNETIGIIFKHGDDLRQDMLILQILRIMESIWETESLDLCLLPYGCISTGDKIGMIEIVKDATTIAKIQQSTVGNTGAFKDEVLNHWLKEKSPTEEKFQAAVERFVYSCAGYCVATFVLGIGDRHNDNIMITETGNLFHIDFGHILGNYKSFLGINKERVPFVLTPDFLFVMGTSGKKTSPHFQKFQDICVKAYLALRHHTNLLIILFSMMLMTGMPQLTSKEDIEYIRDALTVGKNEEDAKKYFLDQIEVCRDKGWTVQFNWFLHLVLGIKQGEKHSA
Description: PI3K isoform HTRF enzyme assay, PI3Kγ. The format is biochemical. Here is the method: as §1, §2, §3

Read-outs that look alike come from different tables or passages of the source.

T1 sequence (O00329 whole entry): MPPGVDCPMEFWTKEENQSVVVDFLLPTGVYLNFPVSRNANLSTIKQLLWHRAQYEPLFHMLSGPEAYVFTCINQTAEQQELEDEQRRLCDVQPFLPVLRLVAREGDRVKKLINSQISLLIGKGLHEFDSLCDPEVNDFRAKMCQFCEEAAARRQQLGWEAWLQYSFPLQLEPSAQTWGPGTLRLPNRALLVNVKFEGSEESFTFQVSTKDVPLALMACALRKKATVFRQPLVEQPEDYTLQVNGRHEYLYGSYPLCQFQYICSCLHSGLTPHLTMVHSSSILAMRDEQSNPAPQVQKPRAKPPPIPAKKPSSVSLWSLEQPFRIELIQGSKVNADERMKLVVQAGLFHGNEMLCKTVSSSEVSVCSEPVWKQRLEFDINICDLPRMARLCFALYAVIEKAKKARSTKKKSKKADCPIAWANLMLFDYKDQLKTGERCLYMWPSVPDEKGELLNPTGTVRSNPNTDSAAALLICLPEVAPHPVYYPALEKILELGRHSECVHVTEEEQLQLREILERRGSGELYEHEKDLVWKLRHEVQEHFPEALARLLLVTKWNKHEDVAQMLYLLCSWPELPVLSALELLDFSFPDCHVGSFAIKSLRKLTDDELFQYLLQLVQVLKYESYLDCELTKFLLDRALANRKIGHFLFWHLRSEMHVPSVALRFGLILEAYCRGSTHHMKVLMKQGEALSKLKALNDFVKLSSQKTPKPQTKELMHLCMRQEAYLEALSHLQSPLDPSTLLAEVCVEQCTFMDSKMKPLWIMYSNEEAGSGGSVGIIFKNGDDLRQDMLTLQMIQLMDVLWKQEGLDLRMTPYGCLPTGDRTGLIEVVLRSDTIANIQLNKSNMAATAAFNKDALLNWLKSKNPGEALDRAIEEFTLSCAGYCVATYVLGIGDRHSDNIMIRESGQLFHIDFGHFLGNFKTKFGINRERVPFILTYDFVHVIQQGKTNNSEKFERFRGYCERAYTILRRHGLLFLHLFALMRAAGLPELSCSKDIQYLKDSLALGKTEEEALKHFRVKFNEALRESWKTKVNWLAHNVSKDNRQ
T1 sequence (P27986 whole entry partner): as the sequence (P27986 whole entry partner) above

A word on the IC50: it is the midpoint of a concentration-inhibition curve. `O=c1cc(N2CCOCC2)oc2c(-c3ccccc3)cccc12` [LY294002, 2-(4-morpholinyl)-8-phenyl-chromone, reference compound]: the IC50 at Human PI3Kδ (p110δ/p85α) was found to be 320 nM.

As usually defined, the melting point is the temperature, or range, at which the solid turns liquid. Compound `COC(=O)c1sc2c(cnc3cc(OC)c(OC)cc32)c1NC(=O)c1ccc(F)cc1` [Example 18, Methyl 3-(4-fluorobenzamido)-7,8-dimethoxythieno[3,2-c]quinoline-2-carboxylate] returned a melting point of 196 to 198 °C. Also, the IC50 in data set [1] came to 150 nM. Besides, the IC50 with DU145 (prostate cancer) stood at 2500 nM. Moreover, the IC50 on Human PI3Kα (p110α/p85α) (10 μM PIP2, 10 μM ATP, HTRF, read-out: IC50 against PI3Kα) amounted to 25300 nM. Besides, the “inhibition of other isoforms of PI3K (PI3Kα), in words” value against Human PI3Kα (p110α/p85α) (Table 2) is listed as “does not inhibit”. Also, the IC50 at Human PI3Kβ (p110β/p85α) (10 μM PIP2, 10 μM ATP, HTRF, read-out: IC50 against PI3Kβ) amounted to 8540 nM. The “inhibition of other isoforms of PI3K (PI3Kβ), in words” value at Human PI3Kβ (p110β/p85α) (Table 2) is reported as “does not inhibit”. Besides, the half-inhibitory concentration (IC50) at Human PI3Kγ (p120γ) (10 μM PIP2, 10 μM ATP, HTRF, read-out: IC50 against PI3Kγ) came out at 1010 nM. Moreover, the IC50 on Human PI3Kγ (p120γ) (Table 2, read-out: IC50 against PI3Kγ isoform) amounted to 1000 nM. Further, on Human PI3Kγ (p120γ) (statement in description), the “selective inhibition of the activity of PI3Kγ, in words” value is “selectively inhibits”. Also, the IC50 at Human PI3Kδ (p110δ/p85α) is 25700 nM. In addition, the “inhibition of other isoforms of PI3K (PI3Kδ), in words” value against Human PI3Kδ (p110δ/p85α) (Table 2) is reported as “does not inhibit”.

`COc1cc2ncc3c(N)c(C(=O)c4ccc(F)cc4)sc3c2cc1OC` [Example 3, (3-Amino-7,8-dimethoxythieno[3,2-c]quinolin-2-yl)(4-fluorophenyl)methanone] returned a melting point of 286 to 288 °C. The compound further gave an IC50 in data set [1] of over 10000 nM. Besides, the IC50 in the data set on DU145 (prostate cancer) is over 10000 nM.

Compound `COC(=O)c1sc2c(cnc3cc(OCc4ccccc4)c(OC)cc32)c1N` [Example 4, Methyl 3-amino-7-benzyloxy-8-methoxythieno[3,2-c]quinolone-2-carboxylate] came in with a melting point of 221 to 223 °C. The half-inhibitory concentration (IC50) in data set [1] was over 10000 nM. The IC50 in the data set with DU145 (prostate cancer) is over 10000 nM.

For the compound `COc1cc2ncc3c(N)c(C(C)=O)sc3c2cc1OC` [Example 6, 1-(3-Amino-7,8-dimethoxythieno[3,2-c]quinolin-2-yl)ethanone], the melting point was in the range of 260 to 263 °C. Further, the IC50 in data set [1] was 500 to 1000 nM. Besides, in the data set on DU145 (prostate cancer), the IC50 is 1000 to 10000 nM.

`N#Cc1sc2c(cnc3ccc(F)cc32)c1N` [Example 36, 3-Amino-8-fluorothieno[3,2-c]quinoline-2-carbonitrile]: the melting point is over 300 °C. The compound further came in with an IC50 in data set [1] of 75000 nM. Besides, in the data set on DU145 (prostate cancer), the IC50 came out at 75000 nM.

In turn, `CCOC(=O)c1sc2c(cnc3cc(OC)c(OC)cc32)c1N` [Example 2, Ethyl 3-amino-7,8-dimethoxythieno[3,2-c]quinolone-2-carboxylate] displayed a melting point of 215 to 218 °C. Besides, the IC50 in data set [1] fell in the range of 500 to 1000 nM. This compound also yielded an IC50 with DU145 (prostate cancer) of over 1000 nM.

Turning to `COC(=O)c1sc2c(cnc3cc(OCCCN4CCCCC4)c(OC)cc32)c1N` [Example 12, Methyl 3-amino-8-methoxy-7-[3-(piperidin-1-yl)propoxy]thieno[3,2-c]quinoline-2-carboxylate], the melting point was 127 to 130 °C. Moreover, in data set [1], the IC50 was in the range of 1000 to 5000 nM. Further, the IC50 with DU145 (prostate cancer) is 1000 to 5000 nM.

`COC(=O)c1sc2c(cnc3cc(OC)c(OC)cc32)c1NC(=O)c1ccccc1` [Example 19, Methyl 3-benzamido-7,8-dimethoxythieno[3,2-c]quinoline-2-carboxylate] returned a melting point of 205 to 208 °C. Moreover, in data set [1], the 50% inhibitory concentration (IC50) lay within 100 to 250 nM. This compound came in with an IC50 in the data set with DU145 (prostate cancer) of 250 to 500 nM.

`COc1cc2ncc3c(N)c(C#N)sc3c2cc1OC` [Example 8, 3-Amino-7,8-dimethoxythieno[3,2-c]quinoline-2-carbonitrile] returned a melting point of 314 to 316 °C. Besides, the IC50 in data set [1] is 1000 to 10000 nM. In the data set on DU145 (prostate cancer), this compound had an IC50 of 10000 to 25000 nM.

With `COC(=O)c1sc2c(cnc3cc(OC)c(OC)cc32)c1NC(=O)c1ccc(Cl)c([N+](=O)[O-])c1` [Example 22, Methyl 3-(4-chloro-3-nitrobenzamido)-7,8-dimethoxythieno[3,2-c]quinoline-2-carboxylate], the melting point is 260 to 262 °C. In data set [1], this compound had an IC50 of 100 to 500 nM. The compound further displayed an IC50 in the data set on DU145 (prostate cancer) of 500 to 1000 nM.

`COc1ccc(C(=O)c2sc3c(cnc4cc(F)c(F)cc43)c2N)cc1` [Example 40, (3-Amino-7,8-difluorothieno[3,2-c]quinolin-2-yl)(4-methoxyphenyl)methanone] yielded a melting point of 258 to 260 °C. This compound also had an IC50 in data set [1] of 75000 nM. The compound also had an IC50 in the data set on DU145 (prostate cancer) of 75000 nM.

These data come from patent publication US20150065499A1, “3-AMINOTHIENO[3,2-c]QUINOLINE DERIVATIVES, METHODS OF PREPARATION AND USES” (TEMPLE UNIVERSITY - OF THE COMMONWEALTH SYSTEM OF HIGHER …, priority 2012, published 2015).
